Assay results published in patent publication US20110263539A1, “SHIP 1 MODULATOR COMPOUNDS” (THE UNIVERSITY OF BRITISH COLUMBIA, priority 2006, published 2011).

What was measured:
[1] = system: SHIP enzyme; assay: In vitro SHIP enzyme assay (Assay 1); type: biochemical; settings: 100 μM inositol-1,3,4,5-tetrakisphosphate, Malachite Green; note: key: a ‘+’ indicates a positive result for desired activity; a ‘−’ indicates a negative result for desired activity
Procedure: Assay 1) In vitro testing in a SHIP enzyme assay. Test compounds were dissolved in a suitable solvent (e.g. EtOH, DMSO and others) and diluted into aqueous buffer (20 mM Tris HCl, pH 7.5 and 10 mM MgCl2). SHIP enzyme assays were performed in 96-well microtitre plates with 10 ng of enzyme/well in a total volume of 25 μL of 20 mM Tris HCl, pH 7.5 and 10 mM MgCl2. SHIP enzyme was incubated with test extracts (provided in solvent) or vehicle for 15 min at 23° C. before the addition of 100 μM inositol-1,3,4,5-tetrakisphosphate (Echelon Biosciences Inc, Salt Lake City, Utah). After 20 min at 37° C. and the amount of inorganic phosphate released assessed by the addition of Malachite Green reagent and absorbance measurement at 650 nm.
For in vitro testing in the SHIP enzyme assay, AQX-016A and Compound 100 were dissolved in EtOH and diluted into aqueous buffer (20 mM Tris HCl, pH 7.5 and 10 mM MgCl2). The actual concentration of drug in solution was determined by optical density measurement at 280 nm (λmax for both compounds) after high speed centrifugation at 14 000×g for 30 min to remove precipitated drug. For testing on cells, compounds were formulated in the carrier cyclodextrin (Cyclodex Technologies, High Springs, Fla.) at 6 mM (2 mg/mL). For oral administration to animals, compounds were dissolved in 100% cremophore EL (Sigma-Aldrich Canada, Oakville, Ontario) at 150 mM (50 mg/mL) prior to dilution to 6 mM in phosphate buffer saline. However, while these compounds caged in cyclodextrin or formulated in cremophore EL micelles were very soluble in aqueous solution, they could not be used in the SHIP enzyme assays because of interference from both cyclodextrin and cremophore EL.
N-terminal His6 tagged SHIP enzyme was expressed in mammalian 293T cells by transient transfection with pME18S-His-SHIP plasmid and purified to >95% homogeneity by Ni-chelating bead chromatography (Qiagen, Mississauga, Ontario). Recombinant SHIP C2 domain (amino acid residues 725 to 863) was expressed in E. coli transformed with a pET28C expression vector constructed as described below. Recombinant protein purified from the cell lysates by Nichelating bead chromatography was >95% pure.
In vitro SHIP enzyme assay. SHIP enzyme assays were performed in 96-well microtitre plates with 10 ng of enzyme/well in a total volume of 25 μL of 20 mM Tris HCl, pH 7.5 and 10 Mm MgCl2. SHIP enzyme was incubated with test extracts (provided in DMSO) or vehicle for 15 min at 23° C. before the addition of 100 μM inositol-1,3,4,5-tetrakisphosphate (Echelon Biosciences Inc, Salt Lake City, Utah). After 20 min at 37° C. and the amount of inorganic phosphate released assessed by the addition of Malachite Green reagent and absorbance measurement at 650 nm. SHIP2 enzyme was purchased from Echelon Biosciences (Salt Lake City, Utah) and an equivalent amount of inositol phosphatase activity was used in the in vitro enzyme assay. Enzyme data are expressed as the mean of triplicates +/−SEM. Experiments were performed at least 3 times. (FIGS. 7A and 7B).

[2] = system: J774.1a macrophage cells; assay: Macrophage TNF-α production (Assay 2); type: cell-based; settings: 10 μg/mL test compound, 100 ng/mL LPS, ELISA; note: key: a ‘+’ indicates a positive result for desired activity; a ‘−’ indicates a negative result for desired activity
Procedure: Assay 2) Macrophage TNF-α production. J774.1a macrophage cells were treated with 10 μg/mL of test compound dissolved in solvent (e.g. cyclodextran) for 40 minutes prior to the addition of 100 ng/mL LPS. Culture supernatants were collected after 2 hr and 5 hr for TNF-α determination by ELISA.

[3] = system: J774.1a macrophage cells; assay: Macrophage TNF-α NO assay (Assay 3); type: cell-based; settings: 10 μg/ml test compound, LPS, 24 hr, Griess reagent; note: key: a ‘+’ indicates a positive result for desired activity; a ‘−’ indicates a negative result for desired activity
Procedure: Assay 3) Macrophage TNF-α NO assay. J774.1a macrophage cells were treated with 10 μg/ml of test compound dissolved in solvent for 40 minutes prior to the addition of LPS. Culture supernatants were collected after 24 hr. for determination of NO concentration using the Griess reagent.

[4] = system: MM cell lines; assay: In vitro Multiple Myeloma (MM) assay (Assay 7); type: cell-based; note: key: a ‘+’ indicates a positive result for desired activity; a ‘−’ indicates a negative result for desired activity
Procedure: Assay 7) In vitro Multiple Myeloma (MM) assay. The ability of SHIP activators to reduce tumor cell survival was assessed in MM cell lines treated with the test compound. The lines OPM1, OPM2, MM.1S and RPMI 8226 were plated at a density of 1×10^5 cells/mL in 200 μL of medium with various concentrations of the test compound, and viable cell numbers were determined on day 3 and day 5 by trypan blue exclusion. The lines RPMI 8226 and U266 were plated at a density of 1×10^6 cells/mL in 250 μL of medium with various concentrations of the test compound. At day 4, the medium of each culture was replaced by fresh medium containing the same concentration of test compound. At day 7, the viable cell number of each culture was determined by trypan blue exclusion.
MM cell lines were cultured in 96 well plates seeded with 3×10^4 cells suspended in 200 μL of medium along with various concentrations of test compound (and associated cyclodextran vehicle control), with LY294002 serving as a positive control in the experiments. After 24-48 hrs of culture, […] of [3H]-thymidine (GE Healthcare, Baie D'Urfe, Canada) being added for the final 8 hours. Cells were harvested and DNA associated radioactivity was measured via liquid scintillation counting using a Wallac Microbeta counter (Perkin-Elmer; Boston, Mass.).
The ability of SHIP activators to reduce tumor cell survival was assessed in multiple myeloma (MM) cell lines treated with Compound 100 or AQX-016A. The lines OPM1, OPM2, MM.1S and RPMI 8226 were plated at a density of 1×10^5 cells/mL in 200 μL of medium with various concentrations of Compound 100, and viable cell numbers were determined on day 3 and day 5 by trypan blue exclusion. The lines RPMI 8226 and U266 were plated at a density of 1×10^6 cells/mL in 250 μL of medium with various concentrations of AQX-016A. At day 4, the medium of each culture was replaced by fresh medium containing the same concentration of AQX-016A. At day 7, the viable cell number of each culture was determined by trypan blue exclusion. Experiments were performed in triplicate.
Proliferation (DNA synthesis) assays. Proliferation was measured by measuring incorporation of [^3H]-thymidine into cells. MM cell lines were cultured in 96 well plates seeded with 3×10^4 cells suspended in 200 μL, of medium along with various concentrations of Compound 100 or AQX-016A (and associated cyclodextran vehicle control), with LY294002 serving as a positive control in the indicated experiments. After 24-48 hrs of culture, 1 μCi of [^3H]-thymidine (GE Healthcare, Baie D'Urfe, Canada) being added for the final 8 hours. Plates were frozen, which also aided in cell lysis, to terminate the experiments. Cells were then harvested onto glass fibre filters using an automatic cell harvester (TomTech; Orange, Conn.) and DNA associated radioactivity was measured via liquid scintillation counting using a Wallac Microbeta counter (Perkin-Elmer; Boston, Mass.). Wells were set up in triplicate and data is expressed as mean+/−SEM.

[5] = system: Mast cells; assay: Stimulation of mast cells by FcεRI crosslinking (Assay 4); type: cell-based; settings: anti-DNP IgE, DNP-HSA
Procedure: Assay 4) Stimulation of mast cells by FcåRI crosslinking. Mast cells were pre-loaded overnight in BMMC medium lacking IL-3 with 0.1 μg/ml anti-DNP IgE (SPE-7, Sigma, Oakville, Ont). For calcium flux measurements, cells were incubated with 2 μM fura 2-acetoxymethyl ester (Molecular Probes, Eugene, Oreg.) in Tyrode's buffer at 23° C. for 45 min. Cells were then washed and incubated in the presence of the test compound 30 min prior to stimulation with the indicated concentration of DNP-human serum albumin (DNP-HSA). Calcium influx was monitored by spectrofluorometry as described previously. For analysis of intracellular signaling, cells were pre-loaded with anti-DNP IgE as above, pre-treated with the test compound for 30 min at 37° C. and stimulated with 20 ng/ml DNP-HSA for 5 min. Total cell lysates were then prepared and analyzed for phospho-PKB, phospho-p38^MAPK, phospho-MAPK, Grb-2 (Cell Signalling, Mississauga, Ont) and SHIP^6 by immunoblot analysis.

SMILES | Assay Number 1: SHIP enzyme assay [1] | Assay Number 2: Macrophage TNF-α production [2] | Assay Number 3: Macrophage NO [3] | Assay Number 7: In vitro Multiple Myeloma (MM) assay [4] | Assay Number 4: Stimulation of mast cells by FcεRI crosslinking [5]
Cc1cc(O)c(O)c2c1[C@@]1(C)CCC3C(C)(C)CCC[C@]3(C)[C@H]1C2 (stereo partly drawn) [8 Epi 16A] | + |  |  |  | 
COC(=O)c1cc(O)c(O)c2c1[C@@]1(C)CCC3C(C)(C)CCC[C@]3(C)[C@H]1C2 (some centres unmarked) [Compound 8-Epipelorol, 8-Epipelorol] | + |  |  |  | 
COC(=O)c1cc(O)c(O)c2c1[C@]1(C)CCC3C(C)(C)CCC[C@]3(C)[C@@H]1C2 (some centres unmarked) [Compound 9-Epipelorol, 9-Epipelorol] | + |  |  |  | 
CCc1cc(O)c(O)c2c1[C@]1(C)CCC3C(C)(C)CCC[C@]3(C)[C@H]1C2 (some centres unmarked) [Compound 18A, reference compound] | + | + | + |  | 
Cc1cc2c(cc1O)C[C@@H]1[C@@]3(C)CCCC(C)(C)[C@@H]3CC[C@@]21C [Compound 101] |  | + | + | + | 
CC(=O)Oc1cc(C)c2c(c1)C[C@H]1[C@@]2(C)CCC2C(C)(C)CCC[C@@]21C (some centres unmarked) [Compound 102] |  | + | + |  | 
Cc1cc(OC(=O)C(N)CCCNC(=N)N)cc2c1[C@]1(C)CCC3C(C)(C)CCC[C@]3(C)[C@H]1C2 (some centres unmarked) [Compound 105] |  | + | + |  | 
Cc1cc(OP(=O)(O)O)cc2c1[C@]1(C)CCC3C(C)(C)CCC[C@]3(C)[C@H]1C2 (some centres unmarked) [Compound 109] |  | − | + | + | 
Cc1cc(OC(=O)C(CC(=O)O)NC(=O)CCC(=O)O)cc2c1[C@]1(C)CCC3C(C)(C)CCC[C@]3(C)[C@H]1C2 (some centres unmarked) [Compound 114] |  | + | + |  | 
CC1(C)CCC[C@]2(C)[C@H]3Cc4cc(O)cc(O)c4[C@]3(C)CC[C@@H]12 [Compound 115] |  |  |  | + | 
COc1cc(O)cc2c1[C@]1(C)CC[C@H]3C(C)(C)CCC[C@]3(C)[C@H]1C2 [Compound 117] |  | + | + | + | 
COc1ccc2c(c1O)C[C@@H]1[C@@]3(C)CCCC(C)(C)[C@@H]3CC[C@@]21C [Compound 118] |  | − | + | + | 
CC1(C)CCC[C@]2(C)[C@H]3Cc4cc(O)ccc4[C@]3(C)CC[C@@H]12 [Compound 121] |  | + | + | + | 
Cc1cc(O)c2c(c1)C[C@@H]1[C@@]3(C)CCCC(C)(C)[C@@H]3CC[C@@]21C [Compound 122] |  | − | + | + | 
Cc1cc(OC(=O)C(N)Cc2cnc[nH]2)cc2c1[C@]1(C)CCC3C(C)(C)CCC[C@]3(C)[C@H]1C2 (some centres unmarked) [Compound 123] |  | + | + |  | 
Cc1cc(O)cc2c1[C@]1(C)CCC3C(C)(C)CCC[C@]3(C)[C@@H]1C2 (some centres unmarked) [Compound 124] |  | + | + | + | +
Cc1cc(O)cc2c1[C@@]1(C)CCC3C(C)(C)CCC[C@]3(C)[C@H]1C2 (some centres unmarked) [Compound 125] |  | + | + | + | +
COc1cc(C)c2c(c1O)C[C@@H]1[C@@]3(C)CCCC(C)(C)[C@@H]3CC[C@@]21C [Compound 129] |  | − | + |  | 
CC1(C)CCC[C@@]2(C)C1CC[C@@]1(C)c3c(C(=O)O)cc(O)c(O)c3C[C@@H]12 (some centres unmarked) [Desmethylpelorol, reference compound] | + | + | + |  | 
COC(=O)c1cc(O)c(O)c2c1[C@]1(C)CCC3C(C)(C)CCC[C@]3(C)[C@H]1C2 (some centres unmarked) [Pelorol, pelorol] | + |  |  |  | 
